For one test, the target named is α5β3γ2 GABAA R (Homo sapiens, UniProt P18507+P31644). Put plainly: Binding activity on GABAA R: inhibition of [3H]Ro15-1788 binding, α5 containing receptor. A digest of the protocol: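 Displacement of [3H]Ro15-1788 (flumazenil) measured at 4 °C over 1 h using 0.2 mg/ml membrane protein from Ltk cells carrying α5β3γ2 GABAA receptors, expression induced with 0.5 μM dexamethasone for 1 day; buffer pH 7.4 KH2PO4/EDTA/KCl. 10 μM diazepam defined nonspecific binding; filter-trapped radioactivity counted, in triplicate.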
Chain of α5β3γ2 GABAA R (P31644 32-462): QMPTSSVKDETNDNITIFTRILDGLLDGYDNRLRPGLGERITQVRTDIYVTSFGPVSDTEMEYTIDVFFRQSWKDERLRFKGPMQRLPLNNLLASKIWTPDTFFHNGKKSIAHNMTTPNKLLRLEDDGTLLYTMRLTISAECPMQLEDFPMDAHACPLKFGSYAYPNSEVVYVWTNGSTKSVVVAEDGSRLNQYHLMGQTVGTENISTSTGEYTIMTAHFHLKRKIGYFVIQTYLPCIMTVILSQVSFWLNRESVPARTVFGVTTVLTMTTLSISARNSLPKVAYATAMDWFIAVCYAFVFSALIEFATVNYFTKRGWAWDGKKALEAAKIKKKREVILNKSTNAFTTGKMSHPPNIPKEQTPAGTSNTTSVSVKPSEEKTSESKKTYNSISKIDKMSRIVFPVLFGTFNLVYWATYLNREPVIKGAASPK
Chain of α5β3γ2 GABAA R (P28472 26-473 partner): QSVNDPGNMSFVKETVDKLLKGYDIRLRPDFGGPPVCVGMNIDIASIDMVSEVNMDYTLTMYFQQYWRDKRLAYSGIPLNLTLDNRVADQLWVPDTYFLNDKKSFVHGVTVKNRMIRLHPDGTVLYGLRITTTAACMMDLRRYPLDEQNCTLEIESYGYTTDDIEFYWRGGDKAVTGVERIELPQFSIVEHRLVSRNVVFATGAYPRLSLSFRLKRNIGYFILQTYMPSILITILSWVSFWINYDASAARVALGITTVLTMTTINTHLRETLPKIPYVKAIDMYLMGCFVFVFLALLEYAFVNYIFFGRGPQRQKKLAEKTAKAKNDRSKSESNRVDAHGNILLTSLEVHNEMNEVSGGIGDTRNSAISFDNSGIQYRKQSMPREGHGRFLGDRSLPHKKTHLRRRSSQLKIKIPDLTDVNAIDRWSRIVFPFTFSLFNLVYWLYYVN
Chain of α5β3γ2 GABAA R (P18507 40-475): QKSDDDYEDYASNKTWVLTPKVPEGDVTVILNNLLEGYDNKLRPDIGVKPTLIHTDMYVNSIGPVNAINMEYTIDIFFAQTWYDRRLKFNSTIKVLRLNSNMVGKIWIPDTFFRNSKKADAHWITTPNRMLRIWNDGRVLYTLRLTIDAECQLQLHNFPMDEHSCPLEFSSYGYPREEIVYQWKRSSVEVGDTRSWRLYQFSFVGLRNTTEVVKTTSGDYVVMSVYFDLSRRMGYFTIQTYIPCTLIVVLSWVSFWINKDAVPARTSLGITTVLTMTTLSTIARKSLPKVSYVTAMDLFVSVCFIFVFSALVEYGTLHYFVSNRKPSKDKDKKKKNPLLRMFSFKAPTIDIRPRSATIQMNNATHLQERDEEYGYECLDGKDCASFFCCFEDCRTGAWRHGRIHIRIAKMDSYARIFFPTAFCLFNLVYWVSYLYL

A further test deals with T1, GABAA R (α5β2γ2) (Homo sapiens, UniProt P18507+P31644).
T1 construct: expressed in transfected cells
T1 sequence (P31644 32-462): as the sequence (P31644 32-462) above
T1 sequence (P47870 25-512 partner limits assumed): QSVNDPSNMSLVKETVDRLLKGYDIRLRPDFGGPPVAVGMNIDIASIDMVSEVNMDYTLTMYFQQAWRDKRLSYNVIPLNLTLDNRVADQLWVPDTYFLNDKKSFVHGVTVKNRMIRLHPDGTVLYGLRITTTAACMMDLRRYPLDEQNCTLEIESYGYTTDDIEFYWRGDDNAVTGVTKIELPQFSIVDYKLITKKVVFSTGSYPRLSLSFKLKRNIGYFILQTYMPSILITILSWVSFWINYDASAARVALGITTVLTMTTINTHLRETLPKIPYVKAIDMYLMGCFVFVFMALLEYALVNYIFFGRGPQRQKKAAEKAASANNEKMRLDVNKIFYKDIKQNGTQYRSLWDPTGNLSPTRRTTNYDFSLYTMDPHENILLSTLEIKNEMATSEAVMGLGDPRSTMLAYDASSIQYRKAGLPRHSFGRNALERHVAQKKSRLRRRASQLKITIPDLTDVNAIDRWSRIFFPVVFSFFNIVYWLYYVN
T1 sequence (P18507 40-475): as the sequence (P18507 40-475) above
In words: Positive allosteric modulator activity: potentiation of EC20 GABA current in oocytes. The format is cell-based. The method, then:
On day 1, 1 ng/32 nL of GABAA α5β2γ2 cDNA was injected into one oocyte. Test starts on day 2. The cDNA injected to the oocytes was a mix of alpha, beta and gamma, their ratio is 1:1:10 (by weight) and the total weight of the mixed 3 subunits to be injected in one oocyte was 1 ng in 32 nl volume. The injected oocytes can also be tested on day 3. In such case, the cDNA amount injected to the oocytes should be reduced by 20%.
Compounds of the present disclosure were tested using the following procedures.
8 oocytes were placed in 8 chambers of OpusXpress and superfused with Modified Barth's Saline (MBS) at 3 mL/min. Glass electrodes back-filled with 3M KCl (0.5-3 megaohms) were used. Membrane potential of oocytes was voltage-clamped at −60 mV. • 2).
Control Test (Diazepam or Methyl 3,5-Diphenylpyridazine-4-Carboxylate) • 1). New oocytes was used to run new test. • 2). […] Oocytes were washed with MBS for 5-10 min. • 4). […] Itest was divided by IGABA to obtain potentiation (%).
Test Compounds at Multiple Doses • 1). Repeat the above steps 1), 2) and 3) in the control test. • 2). […] Divide Itest by IGABA to obtain potentiation (%). • 3). Discard all tested oocytes, new oocytes were used and the above steps 1) and 2) were repeated to test second concentration of the same compound. Each oocyte was used for only one concentration test for a single test compound. The steps were repeated for other test compounds.

Setting [1] is: read-out: GABA α5 Functional Data: potentiation, @ 100 nM, EC20 GABA, ranges of the column heads.
Setting [2] is: ranges of the column heads, [3H]Ro15-1788, Ltk cell membranes.
The mark [3] stands for this setting: read-out: GABA α5 Functional Data: potentiation.

These results are taken from US20240132513A1, “BENZAZEPINE DERIVATIVES, COMPOSITIONS, AND METHODS FOR TREATING COGNITIVE IMPAIRMENT” (AGENEBIO, INC., priority 2022, published 2024).

Read-outs that look alike come from different tables or passages of the source. Some results are limits rather than exact numbers.

Broadly, the Ki is the dissociation constant of the complex between target and ligand, obtained from inhibition or displacement. Read a low Ki as tighter binding. Take `COc1ccc2c(c1)-c1nn(C)cc1Cc1c(-c3cnn(Cc4ccccn4)c3)ncn1-2` [Compound 282]: on α5β3γ2 GABAA R, the Ki is below 100 nM. For the same compound, the activation at 0.1 µM on GABAA R (α5β2γ2) (setting [1]) fell in the range of 5 to 20%. In turn, `COc1ccc2c(c1)-c1nn(C)cc1Cc1c(-c3ncc(C)o3)ncn1-2` [Compound 286] displayed a Ki at α5β3γ2 GABAA R below 100 nM. In addition, the activation at 0.1 µM on GABAA R (α5β2γ2) (setting [1]) fell in the range of 5 to 20%. In the same order, the values of `COc1ccc(Cn2ncc3c2-c2cc(OC)ccc2-n2cnc(-c4noc(COCC(F)(F)F)n4)c2C3)cc1` [Compound 173] are below 100 nM and 5 to 20%. With `COc1ccc2c(c1)-c1nn(Cc3ccc(F)cc3)cc1Cc1c(-c3nc(C)no3)ncn1-2` [Compound 23], at α5β3γ2 GABAA R, the Ki was below 100 nM. In addition, at GABAA R (α5β2γ2) (setting [1]), the activation at 0.1 µM was 5 to 20%. The like results for `COc1ccc2c(c1)-c1nn(C)cc1Cc1c(-c3noc(C(C)(C)OC)n3)ncn1-2` [Compound 185] were, in that order, below 100 nM and 20 to 50%. The like results for `Cn1cc2c(n1)-c1cc(Cl)ccc1-n1cnc(-c3cnn(Cc4ccccc4)c3)c1C2` [Compound 163] were, in that order, below 100 nM and 5 to 20%. As to `CCn1cc2c(n1)-c1cc(Cl)ccc1-n1cnc(-c3nc(C4CC4)no3)c1C2` [Compound 133], the inhibitory constant (Ki) at α5β3γ2 GABAA R (setting [2]) was below 100 nM. Further, the activation at 0.1 µM on GABAA R (α5β2γ2) (setting [3]) fell in the range of 20 to 50%. On α5β3γ2 GABAA R, `CCn1cc2c(n1)-c1cc(OC)ccc1-n1cnc(-c3noc(COCC(F)(F)F)n3)c1C2` [Compound 254] registered a Ki below 100 nM. The activation at 0.1 µM on GABAA R (α5β2γ2) (setting [1]) is 20 to 50%. `CC(C)c1noc(-c2ncn3c2Cc2cn(Cc4ccccc4)nc2-c2cc(Cl)ccc2-3)n1` [Compound 96] returned a Ki at α5β3γ2 GABAA R (setting [2]) below 100 nM. In addition, the activation at 0.1 µM on GABAA R (α5β2γ2) (setting [3]) was in the range of 5 to 20%.

Compound `CC(C)OCc1noc(-c2ncn3c2Cc2cn(C)nc2-c2cc(Cl)ccc2-3)n1` [Compound 242] showed a Ki at α5β3γ2 GABAA R below 100 nM. Also, the activation at 0.1 µM at GABAA R (α5β2γ2) (setting [1]) was in the range of 20 to 50%. The like results for `Cn1cc2c(n1)-c1cc(Cl)ccc1-n1cnc(-c3nc(COC4COC4)co3)c1C2` [Compound 285] were, in that order, below 100 nM and above 50%.

Regarding `COc1ccc2c(c1)-c1nn(Cc3ccccc3)cc1Cc1c(-c3cnn(Cc4ccccc4)c3)ncn1-2` [Compound 76], the Ki at α5β3γ2 GABAA R (setting [2]) was below 100 nM. At GABAA R (α5β2γ2) (setting [3]), the activation at 0.1 µM lay within 20 to 50%.

On to `COc1ccc2c(c1)-c1nn(C)cc1Cc1c(-c3noc(C4CC4)n3)ncn1-2` [Compound 132], for which the Ki on α5β3γ2 GABAA R (setting [2]) is below 100 nM. Besides, the activation at 0.1 µM on GABAA R (α5β2γ2) (setting [3]) lay within 20 to 50%. Consider `COc1ccc2c(c1)-c1nn(Cc3ccccc3F)cc1Cc1c(-c3nc(C)no3)ncn1-2` [Compound 21], for which, on α5β3γ2 GABAA R, the Ki was below 100 nM. Besides, the activation at 0.1 µM on GABAA R (α5β2γ2) (setting [1]) lay within 5 to 20%. At α5β3γ2 GABAA R (setting [2]), `CCn1cc2c(n1)-c1cc(Cl)ccc1-n1cnc(-c3nc(C4CCOC4)no3)c1C2` (stereo not shown) [Compound 192] had a Ki below 100 nM. The activation at 0.1 µM on GABAA R (α5β2γ2) (setting [3]) is 20 to 50%. `FC(F)(F)COCc1nc(-c2ncn3c2Cc2cn(CC4CCCO4)nc2-c2cc(Cl)ccc2-3)no1` (stereo not shown) [Compound 309] showed a Ki at α5β3γ2 GABAA R below 100 nM. Further, the activation at 0.1 µM on GABAA R (α5β2γ2) (setting [1]) was in the range of 5 to 20%.

With `CC(C)c1noc(-c2ncn3c2Cc2cn(C)nc2-c2cc(Cl)ccc2-3)n1` [Compound 103], the Ki at α5β3γ2 GABAA R (setting [2]) was below 100 nM. On GABAA R (α5β2γ2) (setting [3]), the activation at 0.1 µM was in the range of 5 to 20%. Regarding `COc1ccc2c(c1)-c1nn(C3CCOC3)cc1Cc1c(-c3nc(C(F)(F)F)no3)ncn1-2` (stereo not shown) [Compound 263], the Ki at α5β3γ2 GABAA R is below 100 nM. Further, the activation at 0.1 µM on GABAA R (α5β2γ2) (setting [1]) lay within 5 to 20%.

As for `COCc1noc(-c2ncn3c2Cc2cn(C4CCOC4)nc2-c2cc(Cl)ccc2-3)n1` (stereo not shown) [Compound 275], the Ki at α5β3γ2 GABAA R was below 100 nM. At GABAA R (α5β2γ2) (setting [1]), the activation at 0.1 µM was in the range of 5 to 20%. Consider `COCCn1cc2c(n1)-c1cc(OC)ccc1-n1cnc(-c3nc(COC)no3)c1C2` [Compound 300], for which, on α5β3γ2 GABAA R, the inhibition constant (Ki) was below 100 nM. Moreover, the activation at 0.1 µM on GABAA R (α5β2γ2) (setting [1]) was 20 to 50%. In the same order, the values of `Cn1cc2c(n1)-c1cc(Cl)ccc1-n1cnc(C#CC(C)(C)C)c1C2` [Compound 101] are below 100 nM and 20 to 50%.

Compound `COc1ccc2c(c1)-c1nn(CC3CCCO3)cc1Cc1c(-c3nc(C(F)(F)F)no3)ncn1-2` (stereo not shown) [Compound 264] came in with a Ki at α5β3γ2 GABAA R below 100 nM. Also, at GABAA R (α5β2γ2) (setting [1]), the activation at 0.1 µM fell in the range of 5 to 20%. The like results for `Cc1nc(-c2ncn3c2Cc2cn[nH]c2-c2cc(Cl)ccc2-3)no1` [Compound 86] were, in that order, below 100 nM and 5 to 20%. The compound `COc1ccc2c(c1)-c1nn(C)cc1Cc1c(-c3nc(C4CCOC4)no3)ncn1-2` (stereo not shown) [Compound 126] returned a Ki on α5β3γ2 GABAA R below 100 nM. In addition, the activation at 0.1 µM at GABAA R (α5β2γ2) (setting [1]) lay in the range of 20 to 50%. The compound `CC(C)c1nc(-c2ncn3c2Cc2cn(C(C)C)nc2-c2cc(Cl)ccc2-3)no1` [Compound 150] registered a Ki at α5β3γ2 GABAA R below 100 nM. In addition, the activation at 0.1 µM at GABAA R (α5β2γ2) (setting [1]) lay within 20 to 50%. `CCn1cc2c(n1)-c1cc(Cl)ccc1-n1cnc(-c3noc(C4COCCO4)n3)c1C2` (stereo not shown) [Compound 195] yielded a Ki on α5β3γ2 GABAA R below 100 nM. Further, the activation at 0.1 µM at GABAA R (α5β2γ2) (setting [1]) fell in the range of 5 to 20%. For the compound `COc1ccc2c(c1)-c1c(cnn1C)Cc1c(-c3noc(COCC(F)(F)F)n3)ncn1-2` [Compound 184], at α5β3γ2 GABAA R (setting [2]), the Ki is below 100 nM. Also, on GABAA R (α5β2γ2) (setting [3]), the activation at 0.1 µM is above 50%.

In the case of `CC(C)n1cc2c(n1)-c1cc(Cl)ccc1-n1cnc(-c3noc(C4COCCO4)n3)c1C2` (stereo not shown) [Compound 268], the Ki on α5β3γ2 GABAA R was below 100 nM. Further, the activation at 0.1 µM at GABAA R (α5β2γ2) (setting [1]) lay within 20 to 50%. The like results for `CC(C)(C)c1noc(-c2ncn3c2Cc2cn[nH]c2-c2cc(Cl)ccc2-3)n1` [Compound 35] were, in that order, below 100 nM and 20 to 50%.

`COc1ccc2c(c1)-c1nn(C)cc1Cc1c(-c3nc(C(F)(F)F)no3)ncn1-2` [Compound 119] yielded a Ki at α5β3γ2 GABAA R below 100 nM. For the same compound, the activation at 0.1 µM at GABAA R (α5β2γ2) (setting [1]) lay in the range of 5 to 20%.

Turning to `COc1ccc2c(c1)-c1nn(CC3CCOC3)cc1Cc1c(-c3nc(C4CC4)no3)ncn1-2` (stereo not shown) [Compound 168], the Ki on α5β3γ2 GABAA R was below 100 nM. In addition, on GABAA R (α5β2γ2) (setting [1]), the activation at 0.1 µM was 20 to 50%. The like results for `FC(F)(F)c1noc(-c2ncn3c2Cc2cn[nH]c2-c2cc(Cl)ccc2-3)n1` [Compound 106] were, in that order, below 100 nM and 20 to 50%.

In turn, `COc1ccc2c(c1)-c1nn(CC3CC3)cc1Cc1c(-c3nc(C(F)(F)F)no3)ncn1-2` [Compound 116] displayed a Ki at α5β3γ2 GABAA R below 100 nM. Moreover, the activation at 0.1 µM on GABAA R (α5β2γ2) (setting [1]) was 5 to 20%. As for `COc1ccc2c(c1)-c1nn(C)cc1Cc1c(-c3nc([C@@H]4CCOC4)no3)ncn1-2` [Compound 260], on α5β3γ2 GABAA R, the Ki is below 100 nM. Moreover, on GABAA R (α5β2γ2) (setting [1]), the activation at 0.1 µM lay in the range of 5 to 20%. The like results for `Clc1ccc2c(c1)-c1nn(CC3COC3)cc1Cc1c(-c3nc(C4CC4)no3)ncn1-2` [Compound 224] were, in that order, below 100 nM and 20 to 50%. Consider `CCn1cc2c(n1)-c1cc(OC)ccc1-n1cnc(-c3nc(C(C)(C)OC)no3)c1C2` [Compound 234], for which the Ki at α5β3γ2 GABAA R was below 100 nM. Turning to `COCCn1cc2c(n1)-c1cc(OC)ccc1-n1cnc(-c3noc(C4CCOCC4)n3)c1C2` [Compound 318], the Ki on α5β3γ2 GABAA R was below 100 nM. On the same count and under the same terms, the figure for `COc1ccc2c(c1)-c1nn(CCOC(C)(C)C)cc1Cc1c(-c3noc(C(C)(C)OC)n3)ncn1-2` [Compound 333] is below 100 nM; for `CC#Cc1ncn2c1Cc1cn[nH]c1-c1cc(Cl)ccc1-2` [Compound 65] it is below 100 nM. `CC#Cc1ncn2c1Cc1cn[nH]c1-c1cc(OC)ccc1-2` [Compound 83] had a Ki on α5β3γ2 GABAA R (setting [2]) below 100 nM. As for `COc1ccc2c(c1)-c1nn(C)cc1Cc1c(-c3noc(C4(C)COC4)n3)ncn1-2` [Compound 317], the Ki at α5β3γ2 GABAA R is below 100 nM.
